Patent publication US10793547B2, “Modulator of the cystic fibrosis transmembrane conductance regulator, pharmaceutical compositions, methods of treatment, and process for making the modulator” (Vertex Pharmaceuticals Incorporated, priority 2016, dated 2020)

Tests used:
[1] = target: T1, F508del-CFTR (Homo sapiens, UniProt P13569, DEL508-508); assay: Membrane potential optical (FLIPR) assay for F508del-CFTR modulators in NIH 3T3 cells; assay type: cell-based; conditions: NIH 3T3 cells expressing F508del; assay A1; read-out: CFTRdF508 Cor 3T3 FLIPR 384 CFTRdF508 MP 3T3 770 EC50
T1 construct: expressed in transfected cells
Text: Membrane Potential Optical Methods for Assaying Properties of F508del-CFTR Modulators
The assay utilizes fluorescent voltage sensing dyes to measure changes in membrane potential using a fluorescent plate reader (e.g., FLIPR III, Molecular Devices, Inc.) as a readout for increase in functional F508del in NIH 3T3 cells. The driving force for the response is the creation of a chloride ion gradient in conjunction with channel activation and concurrent with compound treatment by a single liquid addition step after the cells have previously been loaded with a voltage sensing dye.
A1. Identification of F508del-CFTR Modulators
To identify modulators of F508del, a fluorescence based HTS assay format was developed. This HTS assay utilizes fluorescent voltage sensing dyes to measure changes in membrane potential on the FLIPR III as a measurement for increase in gating (conductance) of F508del NIH 3T3 cells. The driving force for the response is the creation of a chloride ion gradient in conjunction with channel activation and concurrent with compound treatment by a single liquid addition step after the cells have previously been loaded with a voltage sensing dye.
Bath Solution #1: (in mM) NaCl 160, KCl 4.5, CaCl2 2, MgCl2 1, HEPES 10, pH 7.4 with NaOH, Glucose 10.
Chloride-free bath solution: Chloride salts in Bath Solution #1 (above) are substituted with gluconate salts.
NIH3T3 mouse fibroblasts stably expressing F508del were used for optical measurements of membrane potential. The cells were maintained at 37° C. in 5% CO2 and 90% humidity in Dulbecco's modified Eagle's medium supplemented with 2 mM glutamine, 10% fetal bovine serum, 1×NEAA, β-ME, 1× pen/strep, and 25 mM HEPES in 175 cm^2 culture flasks. For all optical assays, the cells were seeded at 12,000 cells/well in 384-well matrigel-coated plates and cultured for 18-24 hrs at 37° C. for the potentiator assay. For the correction assay, the cells were cultured at 37° C. with and without compounds for 18-24 hours.

[2] = target: T2, human PXR (Homo sapiens, UniProt O75469); assay: PXR assay: PXR mediated CYP3A4 induction in DPX-2 cell line; assay type: cell-based; conditions: DPX-2 cells
T2 construct: host or cells: DPX-2 cell line (derived from HepG2)
T2 sequence (O75469 1-434): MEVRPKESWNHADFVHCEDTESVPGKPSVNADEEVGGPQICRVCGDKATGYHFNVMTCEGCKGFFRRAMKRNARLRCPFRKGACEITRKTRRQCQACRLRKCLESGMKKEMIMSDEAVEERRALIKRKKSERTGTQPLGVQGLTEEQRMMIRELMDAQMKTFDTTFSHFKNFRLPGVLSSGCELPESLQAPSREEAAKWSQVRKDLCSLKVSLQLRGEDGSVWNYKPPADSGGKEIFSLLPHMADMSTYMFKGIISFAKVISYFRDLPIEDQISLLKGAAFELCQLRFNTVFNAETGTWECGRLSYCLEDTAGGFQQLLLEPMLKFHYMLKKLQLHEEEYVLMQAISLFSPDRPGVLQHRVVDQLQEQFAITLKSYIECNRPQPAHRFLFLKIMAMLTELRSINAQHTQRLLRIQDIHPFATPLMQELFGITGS
Procedure: D. Experimental Protocol for PXR Assay
The propensity for PXR mediated CYP3A4 induction is assessed using the DPX-2 cell line in vitro. This cell line, which has been licensed from Puracyp Inc. was derived from HepG2 cells and has been stably transfected with genes encoding human PXR as well as a modified luciferase reporter linked to the CYP3A4 promoter region and related distal and proximal enhancers.
The assay is run in 384 well format and each test article is administered in 11 doses ranging from 0.1 to 60 μM. On day 1, DPX-2 cells which have previously been expanded in-house and cryopreserved are thawed and seeded in tissue culture plates. The following day, media is changed and cells are cultured in media containing test article, vehicle control or the positive control compound, the clinically validated CYP3A4 inducer rifampicin. Cells are cultured in the presence of test article for 48 hours and then cell viability is assessed using fluorescence based assay (Cell Titer-Fluor, Promega) with an EnVision Plate Reader (PerkinElmer). Subsequently, CYP3A4 transactivation, which is proportional to luciferase activity, is measured by reading luminescense using the Promega One-Glo reagent system using the same plate reader.
Data processing within the Genedata software package allows reporting of max fold induction compared to vehicle control, an EC50 value for CYP3A4 inducers and an 11 point-dose response curve.

[3] = MDCK-Wild Type permeability, 96 well + 0.1% BSA; assay type: in vitro ADME; conditions: dog, MDCK, A-B direction, read-out: MDCK-Wild Type-Permeability 96 well + 0.1% BSA Papp compound (A-B)
[4] = system: Rat hepatocytes; assay: Hepatocyte clearance, rat hepatocytes; assay type: in vitro ADME; conditions: percent unchanged
[5] = Rat IV and PO PK studies; assay type: in vivo, male Sprague-Dawley rats; conditions: for RAT PLASMA-RAW IV-bolus CL_drg: nominal 3.0 mg/kg; for RAT PLASMA-RAW PO % F_drg / AUC(0-inf): nominal 3 mg/kg, PO; for AUC(0-inf): male, Sprague-Dawley, plasma, read-out: RAT PLASMA-RAW PO AUC (0-inf)_drg
Procedure: C. Experimental Protocol for Rat IV and PO PK Studies
The tested compound was administered to male Sprague-Dawley rats as a single nominal intravenous dose of 3.0 mg/kg as a solution in 10% NMP, 10% solution, 15% EtOH, 35% PEG400 and 30% D5W. The tested compound was also administered to male Sprague-Dawley rats at single nominal oral dose of 3 mg/kg as a solution in 5% NMP, 30% PEG400, 10% TPGS, 5% PVP-K30 at 5 mL/kg dose volume. Analyses of plasma and dose preparations were performed using LC/MS/MS.
Plasma concentration-time profiles of the tested compound in Sprague-Dawley rats at scheduled (nominal) sampling times were analyzed by noncompartmental pharmacokinetic methods using PK function within Watson LIMS software, Version 7.4.2 (Thermo Scientific Inc, Waltham, Mass.). AUC values were calculated using the linear trapezoidal rule.

T1 sequence (P13569 with tags, fused parts or gaps DEL508-508): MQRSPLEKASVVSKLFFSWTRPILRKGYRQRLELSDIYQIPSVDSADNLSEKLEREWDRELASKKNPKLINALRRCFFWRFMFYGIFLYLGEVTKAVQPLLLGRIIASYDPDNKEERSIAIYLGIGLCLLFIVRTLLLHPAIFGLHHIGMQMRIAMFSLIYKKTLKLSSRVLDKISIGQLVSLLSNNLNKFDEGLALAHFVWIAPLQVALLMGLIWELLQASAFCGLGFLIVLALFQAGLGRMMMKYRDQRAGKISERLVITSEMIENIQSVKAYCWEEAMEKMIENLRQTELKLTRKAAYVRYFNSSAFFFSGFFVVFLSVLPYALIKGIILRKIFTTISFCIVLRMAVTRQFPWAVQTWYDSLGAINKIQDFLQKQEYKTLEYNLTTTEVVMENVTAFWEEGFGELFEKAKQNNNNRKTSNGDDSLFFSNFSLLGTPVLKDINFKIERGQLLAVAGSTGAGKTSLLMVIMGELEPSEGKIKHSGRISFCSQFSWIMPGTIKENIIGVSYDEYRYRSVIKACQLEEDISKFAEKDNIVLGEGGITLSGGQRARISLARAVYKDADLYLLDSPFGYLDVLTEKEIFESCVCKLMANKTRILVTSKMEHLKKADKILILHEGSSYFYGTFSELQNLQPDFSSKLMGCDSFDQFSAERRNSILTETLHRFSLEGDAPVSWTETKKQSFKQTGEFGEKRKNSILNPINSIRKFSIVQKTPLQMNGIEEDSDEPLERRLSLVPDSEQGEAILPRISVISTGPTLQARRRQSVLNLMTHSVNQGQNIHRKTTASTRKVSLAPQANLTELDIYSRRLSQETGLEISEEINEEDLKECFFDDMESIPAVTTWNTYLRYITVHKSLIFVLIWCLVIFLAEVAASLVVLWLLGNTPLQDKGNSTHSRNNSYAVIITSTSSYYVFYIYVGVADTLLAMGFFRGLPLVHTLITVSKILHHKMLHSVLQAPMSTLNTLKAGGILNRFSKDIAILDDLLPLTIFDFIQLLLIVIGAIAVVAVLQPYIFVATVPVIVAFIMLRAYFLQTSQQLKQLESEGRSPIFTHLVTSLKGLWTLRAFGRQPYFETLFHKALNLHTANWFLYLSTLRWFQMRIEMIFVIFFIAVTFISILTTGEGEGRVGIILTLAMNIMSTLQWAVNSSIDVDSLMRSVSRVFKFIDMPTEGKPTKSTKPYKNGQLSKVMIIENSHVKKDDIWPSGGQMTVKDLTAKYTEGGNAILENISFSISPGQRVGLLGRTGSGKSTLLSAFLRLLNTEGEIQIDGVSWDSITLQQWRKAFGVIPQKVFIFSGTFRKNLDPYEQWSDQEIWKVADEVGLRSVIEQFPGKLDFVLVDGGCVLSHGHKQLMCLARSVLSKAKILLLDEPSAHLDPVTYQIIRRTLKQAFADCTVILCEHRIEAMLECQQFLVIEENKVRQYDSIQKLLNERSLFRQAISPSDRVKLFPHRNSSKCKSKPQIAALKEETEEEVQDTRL

Structure (SMILES)	EC50 [1] [µM]	CYP3A4 Induction-PXR human PXR internal Max % Activity [2] [%]	Papp A→B [3] [nm/s]	Hepatocyte clearance-Rat Rat hepatocytes CL pct_unchanged [4] [%]	RAT PLASMA-RAW IV-bolus CL_drg [5] [L/h/kg]	RAT PLASMA-RAW PO % F_drg [5] [%]	AUC(0-inf) [5] [µg·h/mL]
C[C@@H]1CN(c2nc(-n3ccc(OCC(C)(C)C)n3)ccc2C(=O)NS(=O)(=O)c2ccccc2)C(C)(C)C1 [C, reference compound]	0.12	9	15	6	1.75	–	–
Cc1c(S(=O)(=O)NC(=O)c2ccc(-n3ccc(OCC4(C(F)(F)F)CC4)n3)nc2N2C[C@@H](C)CC2(C)C)cnn1C [Compound 9, N-(1,5-dimethylpyrazol-4-yl)sulfonyl-6-[3-[[1-(trifluoromethyl)cyclopropyl]methoxy]pyrazol-1-yl]-2-[(4S)-2,2,4-trimethylpyrrolidin-1-yl]pyridine-3-carboxamide]	0.42	7	61	30	0.102	99	23.4
Cc1c(S(=O)(=O)NC(=O)c2ccc(-n3ccc(OCC(C)(C)C(F)(F)F)n3)nc2N2C[C@@H](C)CC2(C)C)cnn1C [Compound 13, N-(1,5-dimethylpyrazol-4-yl)sulfonyl-6-[3-(3,3,3-trifluoro-2,2-dimethyl-propoxy)pyrazol-1-yl]-2-[(4S)-2,2,4-trimethylpyrrolidin-1-yl]pyridine-3-carboxamide]	0.13	4	117	117	0.18	65	13.4
Cc1nn(C)c(C)c1S(=O)(=O)NC(=O)c1ccc(-n2ccc(OCC(C)(C)C(F)(F)F)n2)nc1N1C[C@@H](C)CC1(C)C [Compound 17, 6-[3-(3,3,3-trifluoro-2,2-dimethyl-propoxy)pyrazol-1-yl]-N-(1,3,5-trimethylpyrazol-4-yl)sulfonyl-2-[(4S)-2,2,4-trimethylpyrrolidin-1-yl]pyridine-3-carboxamide]	0.17	3	38	19	–	–	–
Cc1nn(C)c(C)c1S(=O)(=O)NC(=O)c1ccc(-n2ccc(OCCC3(C(F)(F)F)CC3)n2)nc1N1C[C@@H](C)CC1(C)C [Compound 18, 6-[3-[2-[1-(trifluoromethyl)cyclopropyl]ethoxy]pyrazol-1-yl]-N-(1,3,5-trimethylpyrazol-4-yl)sulfonyl-2-[(4S)-2,2,4-trimethylpyrrolidin-1-yl]pyridine-3-carboxamide]	0.17	5	80	0	–	–	–
Cc1nn(C)cc1S(=O)(=O)NC(=O)c1ccc(-n2ccc(OC3CC3C(F)(F)F)n2)nc1N1C[C@@H](C)CC1(C)C (stereo partly drawn) [Compound 34, N-(1,3-dimethylpyrazol-4-yl)sulfonyl-6-[3-[2-(trifluoromethyl)cyclopropoxy]pyrazol-1-yl]-2-[(4S)-2,2,4-trimethylpyrrolidin-1-yl]pyridine-3-carboxamide]	0.61	6	75	39	–	–	–
Cc1nn(C)cc1S(=O)(=O)NC(=O)c1ccc(-n2ccc(OCCC(C3CC3)C3CC3)n2)nc1N1C[C@@H](C)CC1(C)C [Compound 38, 6-[3-(3,3-dicyclopropylpropoxy)pyrazol-1-yl]-N-(1,3-dimethylpyrazol-4-yl)sulfonyl-2-[(4S)-2,2,4-trimethylpyrrolidin-1-yl]pyridine-3-carboxamide]	0.11	2	10	56	–	–	–
Cc1nn(C)cc1S(=O)(=O)NC(=O)c1ccc(-n2ccc(OCC3C[C@@H]4CC[C@H]3C4)n2)nc1N1C[C@@H](C)CC1(C)C (stereo partly drawn) [Compound 50, N-(1,3-dimethylpyrazol-4-yl)sulfonyl-6-[3-[[(1S,4R)-norbornan-2-yl]methoxy]pyrazol-1-yl]-2-[(4S)-2,2,4-trimethylpyrrolidin-1-yl]pyridine-3-carboxamide]	0.08	4	13	20	–	–	–
Cc1nn(C)cc1S(=O)(=O)NC(=O)c1ccc(-n2ccc(O[C@H]3C[C@@H]4CC[C@H]3C4)n2)nc1N1C[C@@H](C)CC1(C)C [Compound 51, N-(1,3-dimethylpyrazol-4-yl)sulfonyl-6-[3-[(1S,2S,4R)-norbornan-2-yl]oxypyrazol-1-yl]-2-[(4S)-2,2,4-trimethylpyrrolidin-1-yl]pyridine-3-carboxamide]	0.15	6	29	29	–	–	–
Cc1nn(C)cc1S(=O)(=O)NC(=O)c1ccc(-n2ccc(OCC3C4CCC3CC4)n2)nc1N1C[C@@H](C)CC1(C)C (stereo partly drawn) [Compound 52, N-(1,3-dimethylpyrazol-4-yl)sulfonyl-6-[3-(norbornan-7-ylmethoxy)pyrazol-1-yl]-2-[(4S)-2,2,4-trimethylpyrrolidin-1-yl]pyridine-3-carboxamide]	0.17	2	20	18	–	–	–
